Results on two molecules are retold here after US20100009967A1, “SOLID DOSAGE FORMULATIONS OF T[…]” (priority 2008, published 2010).

The conditions of data set [1]: 25° C./75% relative humidity.
Data set [2] deals with CGRP. Conditions: clinical trials, Olesen et al. 2004; cited from earlier work.
The test system of data set [3] is CGRP. The following applies: control group, Petersen et al. 2005; cited from earlier work.

For `O=C(N[C@@H]1CC[C@@H](c2cccc(F)c2F)CN(CC(F)(F)F)C1=O)N1CCC(n2c(=O)[nH]c3ncccc32)CC1` [spray-dried amorphous form], in data set [1], the Water content stood at 18%. As for BIBN4096BS, the “efficacy in treating acute attacks of migraine” value in the data set on CGRP [2] is reported as “effective in treating acute attacks of migraine”. In addition, the “prevention of headache induced by CGRP infusion” value in the data set on CGRP [3] was “able to prevent headache induced by CGRP infusion”.
